These results are taken from patent US20250270170A1, “2,3-DIMETHOXY-5-METHYL-1,4-BENZOQUINONE ALKYL ALCOHOL DERIVATIVE AND USE THEREOF” (BEIJING ANJIANXI BIO-MEDICAL TECHNOLOGY CO., LTD., priority 2021, published 2025).

The subject of series [1] is cisplatin-induced acute kidney damage in mice. The experiment in a line: Example 11: renal pathology (HE, PAS) and pathological scoring. The format is in vivo, C57BL/6J mice. The settings on record: bid, listed as R01. The protocol: (§1) 42 male C57BL/6J mice (age: 6 to 8 weeks, body weight 18-20 g, certificate number: 11400700238365) were purchased from Si Pei Fu (Beijing) Biotechnology Co., Ltd., and raised in an SPF-grade animal room of the Institute of Materia Medica, Chinese Academy of Medical Sciences, at a temperature of 20 to 25° C., a relative humidity of 40% to 70%, and a cycle of 12 hours of light and 12 hours of dark. The animals had free access to water and food. After 3 days of normal feeding, mice with good physical conditions after the veterinary examination were selected for this assay. Before grouping, a marker was used to mark on the base of the animals' tail. After grouping, each animal was marked with an ear cutout (7 mice in each group).
(§2) Assay animals: 42 7-week-old male C57 mice were used for animal testing after an adaptive feeding.
(§3) Group 1: blank control group;
(§4) The preparation of the R01 formulation administration test solution was the same as that in Example 5: an appropriate amount of the R01 formulation was weighed according to the three dosages set in the assay, respectively, and an appropriate volume of 0.5% CMC-Na aqueous solution was added. The mixture was vortexed and sonicated until mixed evenly, to give the administration test solutions with concentrations of […], respectively, which were ready for use.
(§5) Animal testing period: 7 days (excluding adaptive feeding), hereinafter referred to as: D1-D7.
1. […]
The body weight of the animals when being grouped for administration in each group was recorded. The body weight and the kidney weight at the end of the assay were also recorded, and the kidney coefficient was calculated. The creatinine and urea nitrogen values in the blood samples sent for testing were recorded. […]

Series [2] shares this test system. The experiment in a line: Example 11: serum creatinine (Cre) in cisplatin-induced acute kidney damage model. The class given is in vivo, C57BL/6J mice. The settings on record: for Serum creatinine (Cre) level after the assay, x (mean): group mean; for Serum creatinine (Cre) level after the assay, x (mean) / Serum creatinine (Cre) level after the assay: cisplatin model; for Serum creatinine (Cre) level after the assay: individual animals No. 1-7. The method, then: as §1, §2, §3, §4, §5
1. The first group was a solvent control group: N=7, all mice were males (the same below); • a) 0.5% solution of sodium carboxymethyl cellulose was gavagely administered from D1 to D6 (twice a day for each animal, with an interval of 8 hours between the morning and the afternoon). • b) Physiological saline was intraperitoneally injected in one-time on D4. • c) On D7, blood was collected from the orbit for euthanasia (300 ul of serum was extracted), the left kidney was fixed in formaldehyde, and the right kidney was preserved in liquid nitrogen (WB study may be carried out).
1) The concentrations of urea nitrogen and creatinine in peripheral blood serum were tested.
The body weight of the animals when being grouped for administration in each group was recorded. The body weight and the kidney weight at the end of the assay were also recorded, and the kidney coefficient was calculated. The creatinine and urea nitrogen values in the blood samples sent for testing were recorded. The kidneys were stained with HE and PAS, and the slides were scanned. A report was issued after the pathological analysis.
The assay data were calculated and processed statistically using Microsoft Office Excel 2007 software. Unless otherwise specified, the data were expressed as mean±standard error (Mean±SE), and t-test was used for comparison between two groups.

A further series has as its system ICR mice. Nature of the series: Example 6: repeated gavage administration toxicity for 2 weeks. The format is in vivo. The source says:
The compound of formula (I) was gavagely administered continuously to ICR mice for 14 days, to evaluate the nature, degree, and time-effect relationship of the toxic reactions that the compound of formula (I) may cause, and to provide reference information for the subsequent research.
Preparation of the administration formulation of the test sample in each dosage group: The preparation of the test sample was the same as that in Example 5. When the test sample was used, a final volume mark was marked on a container, and a required amount of the test sample was weighed (weighing weight of the test sample=theoretical dosage/conversion factor) into a container. An appropriate amount of solvent was firstly added, and the mixture was stirred and mixed thoroughly, and sonicated if necessary. The solvent was further added to the final volume mark to dilute and mix evenly, to give a visually uniform formulation, which was verified by the methodology. […] The administration formulation of the test sample with a concentration range of 0.01 mg/mL to 60 mg/mL was stable within 8 days when being stored airtightly at 2° C. to 8
Route of Administration: Oral Gavage
Administered once a day; while maintaining the same administration period every day.
Administered continuously for 14 days
The dosage was calculated based on the latest animal body weight.
The administration formulation of the test sample was stirred at room temperature for at least 10 minutes, and suspended uniformly with visual inspection before the administration. The administration formulation of the test sample was required to be continually stirred during the administration.
Observation indicators: observation of general physical signs, detailed clinical observation, body weight, and food intake were included.

The mark [3] stands for this setting: 100 mg/kg dosage group, surviving animals.

The structures appear in SMILES notation. “And” between values parts separate entries of the source, which are not always exact repeats. Equal values may be shown once. “Also recorded” adds a separate entry of the source.

For the compound `COC1=C(OC)C(=O)C(CCCCCCCCCCOC(=O)Cc2c(C)n(C(=O)c3ccc(Cl)cc3)c3ccc(OC)cc23)=C(C)C1=O` [compound of formula (I)], the “pathological damage of kidneys” value in series [1] (cisplatin 10 mg/kg + R01 6 mg) was “severe renal tubular damage, epithelial cell necrosis and slight protein casts and 2 animals suffered serious kidney damage, and the others were mildly damaged and significantly reduced”; in series [1] (cisplatin 10 mg/kg + R01 36 mg), “Only one mouse in this group showed slight pathological damage to the kidney; also recorded: basically complete kidney tissue morphology, slight damage”. The serum creatinine value result in series [2] (cisplatin 10 mg/kg alone (vs blank, P<0.01) or with amifostine 50 mg/kg i.p. / R01 6, 18, 36 mg/kg bid) is given as “equivalent to that of the blank control group”. The “Serum creatinine (Cre) level after the assay, x (mean)” value in series [2] (R01 6 mg/kg) was 18.4 mg/dL; in series [2] (R01 18 mg/kg), 15.4 mg/dL; in series [2] (R01 36 mg/kg), 15.3 mg/dL. The “Serum creatinine (Cre) level after the assay” value was 20 mg/dl (2×) and 23 mg/dl and 26 mg/dl and 17 mg/dl and 18 mg/dl and 5 mg/dl in series [2] (R01 6 mg/kg, listed as R01, 6 mg/kg); 15 mg/dl (2×) and 12 mg/dl (2×) and 17 mg/dl and 16 mg/dl and 21 mg/dl in series [2] (R01 18 mg/kg, listed as R01, 18 mg/kg); 15 mg/dl (3×) and 13 mg/dl and 17 mg/dl and 16 mg/dl (2×) in series [2] (R01 36 mg/kg, listed as R01, 36 mg/kg). Also, the abnormal reactions entry in the series on ICR mice (25 mg/kg dosage group), in the series with ICR mice (50 mg/kg dosage group) and with ICR mice (setting [3]) was “No abnormal reactions” in each case. The body weight entry in the series on ICR mice (25 mg/kg dosage group), in the series with ICR mice (50 mg/kg dosage group) and in the series with ICR mice (setting [3]) was “increased normally” throughout. Besides, the animals found dead entry in the series on ICR mice (25 mg/kg dosage group, 20 animals per group, gavage once a day, 14 days) is recorded as “No animal was found dead”; with ICR mice (50 mg/kg dosage group, 20 animals per group, gavage once a day, 14 days), “No animal was found dead”; in the series on ICR mice (100 mg/kg dosage group, 20 animals per group, gavage once a day, 14 days), 3; in the series with ICR mice (300 mg/kg dosage group, 20 animals per group, gavage once a day, 14 days), 10; with ICR mice (1000 mg/kg dosage group, 20 animals per group, gavage once a day), 13; in the series on ICR mice (1000 mg/kg/d dosage group, from D3 to D6, administration then stopped), 4.
